# What was measured:
# [1] = test system: H. influenzae Q1; test: MIC against H. influenzae Q1, alone and with subinhibitory concentrations of a second agent; type: cell-based, Haemophilus influenzae;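 note: combinations paired PDF inhibitors with macrolides, one class added below its own MIC to test whether the MIC of the other class dropped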
# [2] = test system: S. pneumoniae 1629; test: MIC against S. pneumoniae 1629, alone and with subinhibitory concentrations of a second agent; type: cell-based, Streptococcus pneumoniae; conditions: for decrease of MIC by subinhibitory concentrations of Compound (1b): S. pneumoniae; for MIC, antibiotic with 0.06 ug/mL (¼ MIC) of Compound (1b) / fold decrease MIC, antibiotic with 0.06 ug/mL (¼ MIC) of Compound (1b) / MIC, antibiotic with […] (½ MIC) of Compound (1b) / fold decrease MIC, antibiotic with […] (½ MIC) of Compound (1b) / MIC, antibiotic alone: S. pneumoniae 1629; for MIC, antibiotic with 0.06 ug/mL (¼ MIC) of Compound (1b) / fold decrease MIC, antibiotic with 0.06 ug/mL (¼ MIC) of Compound (1b): +0.06 ug/mL Compound (1b); for MIC, antibiotic alone: single agent; for MIC: Streptococcus pneumoniae, 1629, S. pneumoniae 1629, no second agent, read-out: MIC, single agent
# [3] = test system: S. aureus WCUH29; test: MIC against S. aureus WCUH29, alone and with subinhibitory concentrations of a second agent; type: cell-based, Staphylococcus aureus; conditions: for MIC, antibiotic with 0.5 ug/mL (¼ MIC) of Compound (1a) / fold decrease MIC, antibiotic with 0.5 ug/mL (¼ MIC) of Compound (1a) / MIC, antibiotic with 1 ug/mL (½ MIC) of Compound (1a) / fold decrease MIC, antibiotic with 1 ug/mL (½ MIC) of Compound (1a) / MIC, antibiotic alone: S. aureus WCUH29; for MIC, antibiotic with 0.5 ug/mL (¼ MIC) of Compound (1a) / fold decrease MIC, antibiotic with 0.5 ug/mL (¼ MIC) of Compound (1a): +0.5 ug/mL Compound (1a); for MIC, antibiotic with 1 ug/mL (½ MIC) of Compound (1a) / fold decrease MIC, antibiotic with 1 ug/mL (½ MIC) of Compound (1a): +1 ug/mL Compound (1a); for MIC, antibiotic alone: single agent; for decrease of MIC by subinhibitory concentrations of Compound (1a): S. aureus, Example 3
# [4] = H. influenzae Q1, +0.25 ug/m Azithromycin
# [5] = H. influenzae Q1, +0.5 ug/mL Azithromycin
# [6] = H. influenzae Q1, +0.5 ug/mL Compound (1a)
# [7] = H. influenzae Q1, +1 ug/mL Compound (1a)
decrease of MIC by subinhibitory concentrations of Compound (1b) [2],"MIC, antibiotic with 0.06 ug/mL (¼ MIC) of Compound (1b) [2]","fold decrease MIC, antibiotic with 0.06 ug/mL (¼ MIC) of Compound (1b) [2]","MIC, antibiotic with […] (½ MIC) of Compound (1b) [2]","fold decrease MIC, antibiotic with […] (½ MIC) of Compound (1b) [2]","MIC, antibiotic alone [2]",MIC [2],"MIC, antibiotic with 0.5 ug/mL (¼ MIC) of Compound (1a) [3]","fold decrease MIC, antibiotic with 0.5 ug/mL (¼ MIC) of Compound (1a) [3]","MIC, antibiotic with 1 ug/mL (½ MIC) of Compound (1a) [3]","fold decrease MIC, antibiotic with 1 ug/mL (½ MIC) of Compound (1a) [3]","MIC, antibiotic alone [3]",decrease of MIC by subinhibitory concentrations of Compound (1a) [3],SMILES,also measured
,,,,,,,,,,,,,"CCCCC[C@H](CN(O)C=O)C(=O)NNc1nnc2cccc(C)c2n1 [Compound (1c), N-hydroxy((2R)-2-{[2-(5-methyl-1,2,4-benzotriazin-3-yl)hydrazino]carbonyl}heptyl)formamide]","MIC, antibiotic with 0.25 ug/m (¼ MIC) of Azithromycin [1, 4]: 0.5 µg/mL; fold decrease MIC, antibiotic with 0.25 ug/m (¼ MIC) of Azithromycin [1, 4]: [2] fold; MIC, antibiotic with 0.5 ug/mL (½ MIC) of Azithromycin [1, 5]: 0.125 µg/mL; fold decrease MIC, antibiotic with 0.5 ug/mL (½ MIC) of Azithromycin [1, 5]: [8] fold; MIC, antibiotic alone ([1]; H. influenzae Q1, single agent (Example 8)): 1 µg/mL"
no effect,0.5 µg/mL,[0] fold,0.5 µg/mL,[0] fold,0.5 µg/mL,0.5 µg/mL,0.25 µg/mL,[0] fold,0.25 µg/mL,[0] fold,0.25 µg/mL,no effect,"O=C(O)c1cn(C2CC2)c2cc(N3CCNCC3)c(F)cc2c1=O [Ciprofloxacin, ciprofloxacin]","MIC ([3]; Staphylococcus aureus, WCUH29, S. aureus WCUH29, no second agent, read-out: MIC, single agent): 0.25 µg/mL; MIC, antibiotic with 0.5 ug/mL (¼ MIC) of Compound (1a) [1, 6]: 0.008 µg/mL; fold decrease MIC, antibiotic with 0.5 ug/mL (¼ MIC) of Compound (1a) [1, 6]: [0] fold; MIC, antibiotic with 1 ug/mL (½ MIC) of Compound (1a) [1, 7]: 0.008 µg/mL; fold decrease MIC, antibiotic with 1 ug/mL (½ MIC) of Compound (1a) [1, 7]: [0] fold; MIC, antibiotic alone ([1]; H. influenzae Q1, single agent (Example 7)): 0.008 µg/mL; decrease of MIC by subinhibitory concentrations of Compound (1a) ([1]; H. influenzae, text summary of Example 7): no effect"
no effect,0.5 µg/mL,[0] fold,0.5 µg/mL,[0] fold,0.5 µg/mL,0.5 µg/mL,0.125 µg/mL,[0] fold,0.125 µg/mL,[0] fold,0.125 µg/mL,no effect,"C/C(=C\C(=O)OCCCCCCCCC(=O)O)C[C@@H]1OC[C@H](C[C@@H]2O[C@H]2[C@@H](C)[C@H](C)O)[C@@H](O)[C@H]1O [Mupirocin, mupirocin]",
